From patent US6391897B2, “Biphenyl oxo-acetic acids useful in the treatment of insulin resistance and hyperglycemia” (American Home Products Corporation, priority 1998, dated 2002)
Read-outs that look alike come from different tables or passages of the source.

Experiments:
Human recombinant PTP1B = target: T1, Human recombinant PTP1B (Homo sapiens, UniProt P18031); assay: Inhibition of tri-phosphorylated insulin receptor dodecaphosphopeptide dephosphorylation by hPTP1B (malachite green); format: biochemical; conditions: compound at 2.5 uM
T1 construct: made in house
T1 sequence (P18031 1-435): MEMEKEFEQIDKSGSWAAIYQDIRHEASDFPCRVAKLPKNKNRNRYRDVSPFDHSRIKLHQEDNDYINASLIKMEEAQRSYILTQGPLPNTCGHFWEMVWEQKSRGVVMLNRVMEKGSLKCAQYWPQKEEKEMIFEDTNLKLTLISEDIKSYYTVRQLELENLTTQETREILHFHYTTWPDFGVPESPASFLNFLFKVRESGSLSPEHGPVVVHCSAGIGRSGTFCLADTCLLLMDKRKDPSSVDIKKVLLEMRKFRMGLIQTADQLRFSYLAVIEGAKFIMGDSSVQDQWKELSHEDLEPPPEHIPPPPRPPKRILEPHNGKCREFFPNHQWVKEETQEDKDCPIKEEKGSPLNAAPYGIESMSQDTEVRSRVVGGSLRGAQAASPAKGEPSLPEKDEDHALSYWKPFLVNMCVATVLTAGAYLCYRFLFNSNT

diabetic (ob/ob) mice = assay: Blood glucose lowering in diabetic (ob/ob) mice; format: in vivo; conditions: Mus musculus, po
[1] = read-out: % Change Insulin from Vehicle

Row | percent of phosphatase control (change) at 2.5 uM (Human recombinant PTP1B) | Compound | change in vivo at 100 mg/kg (diabetic (ob/ob) mice; 96 h, plasma glucose on Day 4, 7 or 14, read-out: % Change Glucose from Vehicle) | change in vivo at 100 mg/kg (diabetic (ob/ob) mice; [1])
1 | −43 (2.5 uM) % | CC(=O)c1ccc(-c2ccc(-c3ccc(O[C@@H](Cc4ccccc4)C(=O)[O-])cc3)cc2)s1.[Na+] [Example 71, (2S)-2-[4′-(5-acetyl-thiophen-2-yl)-biphenyl-4-yloxy]-3-phenyl-propionic acid sodium salt] |  | 
2 | −36 (2.5 uM) % | COC(=O)[C@H](Cc1ccccc1)Oc1ccc(-c2ccc(-c3c(Cc4ccccc4)oc4ccccc34)cc2)cc1 [Example 23, (2S)-2-[4′-(2-Benzyl-benzofuran-3-yl)-biphenyl-4-yloxy]-3-phenyl-propionic acid methyl ester] |  | 
3 | −58 (2.5 uM) % | O=C(O)C(Cc1ccccc1)Oc1ccc(-c2ccc(-c3c(Br)oc4ccccc34)cc2)cc1 (centres unmarked) [Example 7, 2-[4′-(2-Bromo-benzofuran-3-yl)-biphenyl-4-yloxy]-3-phenyl-propionic acid] |  | 
4 |  | CC1(COc2ccc(CC3SC(=O)NC3=O)cc2)CCCCC1 (centres unmarked) [Ciglitazone, 5-(4-(1-methylcyclohexylmethoxy)benzyl)-2,4-dione] | -43% | -39%
5 |  | O=C(c1ccccc1)c1oc2ccccc2c1-c1ccc(-c2ccc(OC(Cc3ccccc3)C(=O)O)cc2)cc1 (centres unmarked) [Example 14, 2-[4′-(2-Benzoyl-benzofuran-3-yl)-biphenyl-4-yloxy]-3-phenyl-propionic acid] |  | 19.8%
6 | −15 (2.5 uM) % | O=C(O)COc1ccc(-c2ccc(-c3c(Br)oc4ccccc34)cc2)cc1 [Example 6, [4′-(2-Bromo-benzofuran-3-yl)-biphenyl-4-yloxy]-acetic acid] |  | 
7 | −41 (2.5 uM) % | O=C(O)[C@H](Cc1ccccc1)Oc1ccc(-c2ccc(-c3nc4ccccc4n3Cc3ccccc3)cc2)cc1 [Example 70, (2S)-2-[4′-(1-Benzyl-1H-benzimidazol-2-yl)-biphenyl-4-yloxy]-3-phenyl-propionic acid] |  | 
